Data published in patent publication US20040063662A1, “Selenophene anti-tumor agents” (priority 1996, published 2004).

How the values were obtained:
HCC-2998 = assay: NCI human tumor cell panel: HCC-2998 (Colon Cancer); type: cell-based; conditions: HCC-2998, Colon Cancer; for GI50: read-out: Log10 GI50 (converted); for IC (TGI): read-out: Log10 TGI (converted)
SF-295 = assay: NCI human tumor cell panel: SF-295 (CNS Cancer); type: cell-based; conditions: SF-295, CNS Cancer; for GI50: read-out: Log10 GI50 (converted); for IC (TGI): read-out: Log10 TGI (converted)
OVCAR-4 = assay: NCI human tumor cell panel: OVCAR-4 (Ovarian Cancer); type: cell-based; conditions: OVCAR-4, Ovarian Cancer; for IC (TGI): read-out: Log10 TGI (converted)
OVCAR-3 = assay: NCI human tumor cell panel: OVCAR-3 (Ovarian Cancer); type: cell-based; conditions: OVCAR-3, Ovarian Cancer; for GI50: read-out: Log10 GI50 (converted); for IC (TGI): read-out: Log10 TGI (converted)
NCI-H460 = assay: NCI human tumor cell panel: NCI-H460 (Non-Small Cell Lung Cancer); type: cell-based; conditions: NCI-H460, Non-Small Cell Lung Cancer; for GI50: read-out: Log10 GI50 (converted); for IC (TGI): read-out: Log10 TGI (converted)
SF-539 = assay: NCI human tumor cell panel: SF-539 (CNS Cancer); type: cell-based; conditions: SF-539, CNS Cancer; for GI50: read-out: Log10 GI50 (converted); for IC (TGI): read-out: Log10 TGI (converted)
HOP-92 = assay: NCI human tumor cell panel: HOP-92 (Non-Small Cell Lung Cancer); conditions: for GI50: HOP-92, read-out: Log10 GI50 (converted); for IC (TGI): HOP-92, read-out: Log10 TGI
ACHN = assay: NCI human tumor cell panel: ACHN (Renal Cancer); type: cell-based; conditions: Renal Cancer; for GI50: read-out: Log10 GI50 (converted); for IC (TGI): read-out: Log10 TGI (converted)
UACC-257 = assay: NCI human tumor cell panel: UACC-257 (Melanoma); type: cell-based; conditions: UACC-257, Melanoma; for GI50: read-out: Log10 GI50 (converted); for IC (TGI): read-out: Log10 TGI (converted)
OVCAR-8 = assay: NCI human tumor cell panel: OVCAR-8 (Ovarian Cancer); type: cell-based; conditions: OVCAR-8, Ovarian Cancer; for GI50: read-out: Log10 GI50 (converted); for IC (TGI): read-out: Log10 TGI (converted)
KM12 = assay: NCI human tumor cell panel: KM12 (Colon Cancer); type: cell-based; conditions: KM12, Colon Cancer; for GI50: read-out: Log10 GI50 (converted); for IC (TGI): read-out: Log10 TGI (converted)
LOX IMVI = assay: NCI human tumor cell panel: LOX IMVI (Melanoma); type: cell-based; conditions: Melanoma; for GI50: read-out: Log10 GI50 (converted); for IC (TGI): read-out: Log10 TGI (converted)
UACC-62 = assay: NCI human tumor cell panel: UACC-62 (Melanoma); type: cell-based; conditions: UACC-62, Melanoma; for GI50: read-out: Log10 GI50 (converted); for IC (TGI): read-out: Log10 TGI (converted)
MDA-N = assay: NCI human tumor cell panel: MDA-N (Breast Cancer); type: cell-based; conditions: Breast Cancer; for GI50: read-out: Log10 GI50 (converted); for IC (TGI): read-out: Log10 TGI (converted)
HCT-116 = assay: NCI human tumor cell panel: HCT-116 (Colon Cancer); type: cell-based; conditions: HCT-116, Colon Cancer; for GI50: read-out: Log10 GI50 (converted); for IC (TGI): read-out: Log10 TGI (converted)
SNB-75 = assay: NCI human tumor cell panel: SNB-75 (CNS Cancer); type: cell-based; conditions: SNB-75, CNS Cancer; for GI50: read-out: Log10 GI50 (converted); for IC (TGI): read-out: Log10 TGI (converted)
DU-145 = assay: NCI human tumor cell panel: DU-145 (Prostate Cancer); type: cell-based; conditions: DU-145, Prostate Cancer; for GI50: read-out: Log10 GI50 (converted); for IC (TGI): read-out: Log10 TGI (converted)
HT29 = assay: NCI human tumor cell panel: HT29 (Colon Cancer); type: cell-based; conditions: HT-29, HT29, Colon Cancer; for GI50: read-out: Log10 GI50 (converted); for IC (TGI): read-out: Log10 TGI (converted)
M14 = assay: NCI human tumor cell panel: M14 (Melanoma); type: cell-based; conditions: M14, Melanoma; for GI50: read-out: Log10 GI50 (converted); for IC (TGI): read-out: Log10 TGI (converted)
U251 = assay: NCI human tumor cell panel: U251 (CNS Cancer); type: cell-based; conditions: U-251, U251, CNS Cancer; for GI50: read-out: Log10 GI50 (converted); for IC (TGI): read-out: Log10 TGI (converted)
RPMI-8226 = assay: NCI human tumor cell panel: RPMI-8226 (Leukemia); type: cell-based; conditions: RPMI-8226, Leukemia; for GI50: read-out: Log10 GI50 (converted); for IC (TGI): read-out: Log10 TGI
UO-31 = assay: NCI human tumor cell panel: UO-31 (Renal Cancer); type: cell-based; conditions: UO-31, Renal Cancer
HOP-62 = assay: NCI human tumor cell panel: HOP-62 (Non-Small Cell Lung Cancer); type: cell-based; conditions: HOP-62, Non-Small Cell Lung Cancer; for GI50: read-out: Log10 GI50 (converted); for IC (TGI): read-out: Log10 TGI (converted)
NCI-H322M = assay: cells; type: cell-based; conditions: Homo sapiens, Non-Small Cell Lung Cancer; for GI50: read-out: Log10 GI50 (converted); for IC (TGI): read-out: Log10 TGI (converted)
MDA-MB-435 = assay: NCI human tumor cell panel: MDA-MB-435 (Breast Cancer); type: cell-based; conditions: MDA-MB-435, Breast Cancer; for GI50: read-out: Log10 GI50 (converted); for IC (TGI): read-out: Log10 TGI (converted)
MCF7 = assay: NCI human tumor cell panel: MCF7 (Breast Cancer); type: cell-based; conditions: MCF7, Breast Cancer; for GI50: read-out: Log10 GI50 (converted); for IC (TGI): read-out: Log10 TGI (converted)
MALME-3M = assay: NCI human tumor cell panel: MALME-3M (Melanoma); type: cell-based; conditions: MALME-3M, Melanoma; for GI50: read-out: Log10 GI50 (converted); for IC (TGI): read-out: Log10 TGI (converted)
EKVX = assay: NCI human tumor cell panel: EKVX (Non-Small Cell Lung Cancer); type: cell-based; conditions: Non-Small Cell Lung Cancer; for GI50: read-out: Log10 GI50 (converted); for IC (TGI): read-out: Log10 TGI (converted)
MOLT-4 = assay: NCI human tumor cell panel: MOLT-4 (Leukemia); type: cell-based; conditions: MOLT-4, Leukemia; for GI50: read-out: Log10 GI50 (converted); for IC (TGI): read-out: Log10 TGI (converted)
HCT-15 = assay: NCI human tumor cell panel: HCT-15 (Colon Cancer); type: cell-based; conditions: HCT-15, Colon Cancer; for GI50: read-out: Log10 GI50 (converted); for IC (TGI): read-out: Log10 TGI (converted)
SW-620 = assay: NCI human tumor cell panel: SW-620 (Colon Cancer); type: cell-based; conditions: SW-620, Colon Cancer
SR = assay: NCI human tumor cell panel: SR (Leukemia); type: cell-based; conditions: Leukemia
[1] = read-out: Log10 GI50 (converted)
[2] = read-out: Log10 TGI (converted)

O=Cc1ccc(-c2ccc(-c3ccc[se]3)[se]2)[se]1 [NSC 675244]
GI50 (HCC-2998): 2.51 µM | IC (TGI) (HCC-2998): 11.5 µM | GI50 (SF-295): 15.1 µM | IC (TGI) (SF-295): 28.2 µM | GI50 (OVCAR-4; [1]): 1.58 µM | IC (TGI) (OVCAR-4): 14.8 µM | GI50 (OVCAR-3): 0.282 µM | IC (TGI) (OVCAR-3): 7.94 µM | GI50 (NCI-H460): 2.24 µM | IC (TGI) (NCI-H460): 16.2 µM | GI50 (SF-539): 17 µM | IC (TGI) (SF-539): 33.1 µM | GI50 (HOP-92): 11 µM | IC (TGI) (HOP-92): 25.7 µM | GI50 (ACHN): 10.2 µM | IC (TGI) (ACHN): 21.9 µM | GI50 (UACC-257): 0.309 µM | IC (TGI) (UACC-257): 0.851 µM | GI50 (OVCAR-8): 9.12 µM | IC (TGI) (OVCAR-8): 30.2 µM | GI50 (KM12): 6.31 µM | IC (TGI) (KM12): 19.5 µM | GI50 (LOX IMVI): 5.62 µM | IC (TGI) (LOX IMVI): 20.9 µM | GI50 (UACC-62): 0.0708 µM | IC (TGI) (UACC-62): 10.7 µM | GI50 (MDA-N): 4.57 µM | IC (TGI) (MDA-N): 19.5 µM | GI50 (HCT-116): 0.38 µM | IC (TGI) (HCT-116): 13.8 µM | GI50 (SNB-75): 2 µM | IC (TGI) (SNB-75): 6.46 µM | GI50 (DU-145): 12.6 µM | IC (TGI) (DU-145): 25.1 µM | GI50 (HT29): 3.24 µM | IC (TGI) (HT29): 13.2 µM | GI50 (M14): 11.5 µM | IC (TGI) (M14): 28.8 µM | GI50 (U251): 0.316 µM | IC (TGI) (U251): 13.8 µM | GI50 (RPMI-8226): 2.95 µM | IC (TGI) (RPMI-8226): > 100 µM | GI50 (UO-31; [1]): 15.5 µM | IC (TGI) (UO-31; [2]): 28.8 µM | GI50 (HOP-62): 12 µM | IC (TGI) (HOP-62): 29.5 µM | GI50 (NCI-H322M): 13.2 µM | IC (TGI) (NCI-H322M): 28.2 µM | GI50 (MDA-MB-435): 10.2 µM | IC (TGI) (MDA-MB-435): 33.1 µM | GI50 (MCF7): 0.479 µM | IC (TGI) (MCF7): 11.5 µM | GI50 (MALME-3M): 12.6 µM | IC (TGI) (MALME-3M): 28.2 µM | GI50 (EKVX): 25.1 µM | IC (TGI) (EKVX): 64.6 µM | GI50 (MOLT-4): 2.4 µM | IC (TGI) (MOLT-4): 7.59 µM | GI50 (HCT-15): 7.41 µM | IC (TGI) (HCT-15): 26.3 µM

O=Cc1ccc(-c2ccc(-c3ccc(C=O)s3)[se]2)s1 [NSC 675345]
GI50 (HCC-2998): 2.34 µM | IC (TGI) (HCC-2998): 6.92 µM | GI50 (SF-295): 38.9 µM | IC (TGI) (SF-295): > 100 µM | IC (TGI) (OVCAR-4): > 100 µM | GI50 (OVCAR-3): 2.19 µM | IC (TGI) (OVCAR-3): > 100 µM | GI50 (NCI-H460): 0.813 µM | IC (TGI) (NCI-H460): > 100 µM | GI50 (SF-539): > 100 µM | IC (TGI) (SF-539): > 100 µM | GI50 (HOP-92): 14.5 µM | IC (TGI) (HOP-92): 55 µM | GI50 (ACHN): 77.6 µM | IC (TGI) (ACHN): > 100 µM | GI50 (UACC-257): 1.38 µM | IC (TGI) (UACC-257): > 100 µM | GI50 (OVCAR-8): > 100 µM | IC (TGI) (OVCAR-8): > 100 µM | GI50 (KM12): > 100 µM | IC (TGI) (KM12): > 100 µM | GI50 (LOX IMVI): > 100 µM | IC (TGI) (LOX IMVI): > 100 µM | GI50 (UACC-62): 0.347 µM | IC (TGI) (UACC-62): 2.82 µM | GI50 (MDA-N): > 100 µM | IC (TGI) (MDA-N): > 100 µM | GI50 (HCT-116): 4.07 µM | IC (TGI) (HCT-116): > 100 µM | GI50 (SNB-75): 52.5 µM | IC (TGI) (SNB-75): > 100 µM | GI50 (DU-145): > 100 µM | IC (TGI) (DU-145): > 100 µM | GI50 (HT29): > 100 µM | IC (TGI) (HT29): > 100 µM | GI50 (M14): > 100 µM | IC (TGI) (M14): > 100 µM | GI50 (U251): 2.29 µM | IC (TGI) (U251): 21.4 µM | GI50 (RPMI-8226): > 100 µM | IC (TGI) (RPMI-8226): > 100 µM | GI50 (HOP-62): 47.9 µM | IC (TGI) (HOP-62): > 100 µM | GI50 (NCI-H322M): > 100 µM | IC (TGI) (NCI-H322M): > 100 µM | GI50 (MDA-MB-435): 58.9 µM | IC (TGI) (MDA-MB-435): > 100 µM | GI50 (SW-620; [1]): 38 µM | IC (TGI) (SW-620; [2]): > 100 µM | GI50 (MCF7): 0.724 µM | IC (TGI) (MCF7): 5.62 µM | GI50 (MALME-3M): > 100 µM | IC (TGI) (MALME-3M): > 100 µM | GI50 (SR; [1]): > 100 µM | IC (TGI) (SR; [2]): > 100 µM | GI50 (EKVX): > 100 µM | IC (TGI) (EKVX): > 100 µM | GI50 (MOLT-4): > 100 µM | IC (TGI) (MOLT-4): > 100 µM | GI50 (HCT-15): > 100 µM | IC (TGI) (HCT-15): > 100 µM
